Test results from patent US9181232B2, “Difluoro-hexahydro-cyclopentaoxazinyls and difluoro-hexahydro-benzooxazinyls as BACE1 inhibitors” (Hoffmann-La Roche Inc., priority 2012, dated 2015).

What was measured:
[1] = biological target: T1, BACE1 (Homo sapiens, UniProt P56817); assay: Cellular Aβ-lowering assay (Aβ40 ELISA, HEK293 cells expressing human APP695); format: cell-based; details: HEK293 cells stably expressing human APP695; Aβ40 in supernatant after 18-20 hrs; read-out: BACE1 cell act. Aβ40 IC50
T1 construct: Human HEK293 cells which are stably transfected with a vector expressing a cDNA of the human APP wt gene (APP695); endogenous in cells; host or cells: HEK293 stably expressing human APP695 wt
T1 sequence (P56817 46-501): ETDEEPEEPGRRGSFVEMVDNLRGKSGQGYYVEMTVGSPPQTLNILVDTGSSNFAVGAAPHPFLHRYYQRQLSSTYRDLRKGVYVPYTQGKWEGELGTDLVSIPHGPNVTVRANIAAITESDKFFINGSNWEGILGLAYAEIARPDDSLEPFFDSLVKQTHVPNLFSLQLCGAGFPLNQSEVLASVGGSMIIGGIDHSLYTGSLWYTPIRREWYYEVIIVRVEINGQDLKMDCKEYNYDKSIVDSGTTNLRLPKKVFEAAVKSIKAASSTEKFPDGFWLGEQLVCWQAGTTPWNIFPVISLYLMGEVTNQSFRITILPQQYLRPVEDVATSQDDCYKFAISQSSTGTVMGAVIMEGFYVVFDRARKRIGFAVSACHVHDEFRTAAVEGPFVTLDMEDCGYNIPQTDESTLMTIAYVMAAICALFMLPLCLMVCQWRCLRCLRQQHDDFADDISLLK
Method: Human HEK293 cells which are stably transfected with a vector expressing a cDNA of the human APP wt gene (APP695) were used to assess the potency of the compounds in a cellular assay. The cells were seeded in 96-well microtiter plates in cell culture medium (Iscove, plus 10% (v/v) fetal bovine serum, glutamine, penicillin/streptomycin) to about 80% confluence and the compounds were added at a 10× concentration in 1/10 volume of medium without FCS containing 8% DMSO (final concentration of DMSO was kept at 0.8% v/v). After 18-20 hrs incubation at 37° C. and 5% CO2 in a humidified incubator the culture supernatant was harvested for the determination of Aβ40 concentrations. 96 well ELISA plates (e.g., Nunc MaxiSorb) were coated with monoclonal antibody which specifically recognize the C-terminal end of Aβ40^10. After blocking of non-specific binding sites with e.g. 1% BSA and washing, the culture supernatants were added in suitable dilutions together with a horseradish peroxidase-coupled Aβ detection antibody (e.g., antibody 4G8, Senetek, Maryland Heights, Mo.) and incubated for 5 to 7 hrs. Subsequently the wells of the microtiter plate were washed extensively with Tris-buffered saline containing 0.05% Tween 20 and the assay was developed with tetramethylbenzidine/H2O2 in citric acid buffer. After stopping the reaction with one volume 1 N H2SO4 the reaction was measured in an ELISA reader at 450 nm wavelength. The concentrations of Aβ in the culture supernatants were calculated from a standard curve obtained with known amounts of pure Aβ peptide.

[2] = biological target: T2, cathepsin D (from human liver) (Homo sapiens, UniProt P07339); assay: Cathepsin D fluorescent substrate kinetic assay; format: biochemical; details: pH 5.5
T2 construct: cathepsin D (from human liver, Calbiochem); purchased Calbiochem; host or cells: human liver (tissue-purified)
T2 sequence (P07339 65-162 limits assumed): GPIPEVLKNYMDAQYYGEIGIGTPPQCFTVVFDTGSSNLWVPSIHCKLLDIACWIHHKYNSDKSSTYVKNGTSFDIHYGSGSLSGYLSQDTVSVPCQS
T2 sequence (P07339 169-412 limits assumed): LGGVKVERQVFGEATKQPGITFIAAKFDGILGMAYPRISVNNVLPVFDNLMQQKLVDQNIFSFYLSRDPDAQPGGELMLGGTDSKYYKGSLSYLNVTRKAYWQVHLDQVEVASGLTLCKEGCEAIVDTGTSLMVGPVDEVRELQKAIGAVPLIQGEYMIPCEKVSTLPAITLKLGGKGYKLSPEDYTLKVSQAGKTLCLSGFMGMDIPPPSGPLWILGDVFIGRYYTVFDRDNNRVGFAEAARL
Text: (§1) The MR121 fluorescence assays described below are based on the fact that MR121 forms a non-fluorescent ground state complex with tryptophan. In solution this formation occurs at millimolar concentrations of tryptophan. The mechanism can be used to design a generic biochemical assay for proteases. A substrate peptide is labeled at the N-terminus with tryptophan and at the C-terminus with the fluorophore MR121 (for cathepsin D the 10 amino acid peptide WTSVLMAAPC-MR121 was used; for cathepsin E, MR121-CKLVFFAEDW was used). In absence of protease activity, the substrates remain intact and the MR121 fluorescence is reduced by the high local Trp-concentration. If the substrates are cleaved by the enzymes the MR121 fluorescence is recovered.
(§2) The fluorescent substrate cathepsin D and cathepsin E kinetic assays were performed at room temperature in 384-well microtiter plates (black with clear flat bottom, non binding surface plates from Corning) in a final volume of 51 μl. The test compounds were serially diluted in DMSO (15 concentrations, 1/3 dilution steps) and 1 μl of diluted compounds were mixed for 10 min with 40 μl of cathepsin D (from human liver, Calbiochem) diluted in assay buffer (100 mM sodium acetate, 0.05% BSA, pH 5.5; final concentration: 200 nM) or with 40 μl of recombinant human cathepsin E (R&D Systems) diluted in assay buffer (100 mM sodium acetate, 0.05% BSA, pH 4.5; final concentration: 0.01 nM). After addition of 10 μl of the cathepsin D substrate WTSVLMAAPC-MR121 diluted in cathepsin D assay buffer (final concentration: 300 nM) or […] cathepsin E substrate MR121-CKLVFFAEDW diluted in cathepsin E assay buffer (final concentration: 300 nM), the plates were strongly shaken for 2 minutes. The enzymatic reaction was followed in a plate: vision reader (Perkin Elmer) (excitation wavelength: 630 nm; emission: 695 nm) for at least 30 minutes in a kinetic measurement detecting an increase of MR121 fluorescence during the reaction time. The slope in the linear range of the kinetic was calculated and the IC50 of the test compounds were determined using a four parameter equation for curve fitting.

[3] = biological target: T3, recombinant human cathepsin E (Homo sapiens, UniProt P14091); assay: Cathepsin E fluorescent substrate kinetic assay; format: biochemical; details: pH 4.5
T3 construct: purchased R&D Systems
T3 sequence (P14091 54-396): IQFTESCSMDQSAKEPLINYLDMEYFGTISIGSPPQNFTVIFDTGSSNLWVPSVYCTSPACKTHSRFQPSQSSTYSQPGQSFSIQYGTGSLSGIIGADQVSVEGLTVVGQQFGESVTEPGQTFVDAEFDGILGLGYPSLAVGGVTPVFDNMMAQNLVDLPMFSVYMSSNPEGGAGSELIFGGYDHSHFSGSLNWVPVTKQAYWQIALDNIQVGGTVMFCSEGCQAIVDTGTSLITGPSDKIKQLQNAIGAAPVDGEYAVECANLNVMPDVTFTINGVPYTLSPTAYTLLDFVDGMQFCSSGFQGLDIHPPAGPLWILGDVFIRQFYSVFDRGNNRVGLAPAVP
Text: as §1, §2

[4] = biological target: T4, CYP2D6 (Homo sapiens, UniProt P10635); assay: CYP inhibition assay, human liver microsomes, dextromethorphan; format: in vitro ADME; details: read-out: CYP IC50 2D6
T4 construct: 0.2 mg/ml pooled human liver microsomes; from tissue; host or cells: pooled human liver microsomes
T4 sequence (P10635 whole entry): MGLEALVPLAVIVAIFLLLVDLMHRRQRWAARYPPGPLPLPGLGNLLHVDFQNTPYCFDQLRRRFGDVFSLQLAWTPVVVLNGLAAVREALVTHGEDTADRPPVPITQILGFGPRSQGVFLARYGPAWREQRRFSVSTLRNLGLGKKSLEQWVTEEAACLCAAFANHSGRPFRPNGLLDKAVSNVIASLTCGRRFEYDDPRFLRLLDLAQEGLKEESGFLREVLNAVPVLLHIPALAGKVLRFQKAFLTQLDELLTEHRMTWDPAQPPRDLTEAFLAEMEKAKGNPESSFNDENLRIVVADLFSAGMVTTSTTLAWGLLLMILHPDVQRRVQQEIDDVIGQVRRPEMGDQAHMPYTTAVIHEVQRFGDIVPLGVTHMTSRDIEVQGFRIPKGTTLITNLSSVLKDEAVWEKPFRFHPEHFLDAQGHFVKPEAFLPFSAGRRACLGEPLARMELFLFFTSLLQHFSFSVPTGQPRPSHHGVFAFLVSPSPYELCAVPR
Method: (§3) Inhibition of cytochromes P450 (CYPs) 2C9, 2D6 and 3A4 was assessed using human liver microsomes and CYP-selective substrate metabolism reactions. 50 μl incubations were made up containing (finally) 0.2 mg/ml pooled human liver microsomes, 5 μM substrate (diclofenac for CYP2C9 [4′hydroxylase], dextromethorphan for CYP2D6 [O-demethylase] or midazolam for CYP3A4 [1′hydroxylase]), 0.25 μL DMSO containing test inhibitor and NADPH regenerating system. Test inhibitor concentrations of 50, 16.7, 5.6, 1.9, 0.6 and 0.2 μM were assessed in singlicate. Incubations were prewarmed to 37° C. for 10 minutes before initiation by addition of NADPH regenerating system. Incubations were quenched after 5 minutes (20 minutes for dextromethorphan) by addition of 50 μl cold acetonitrile containing 20 ng/ml 4-OH-diclofenac-13C6, 20 ng/mL dextrorphan-D3 and 20 ng/mL 1-OH-midazolam-D4. Quenched incubates were stored at −20° C. for at least 1 hour before centrifugation (20,000×g, 20 minutes). Supernatants were removed and diluted 1:1 with water prior to analysis using a RapidFire sample injector system and API4000 mass spectrometer. Peak areas for substrate, metabolite and stable-labelled metabolite standard were determined using MS/MS. The peak area ratios between the metabolite generated by the enzymatic reaction and the internal standard were used in subsequent calculations. The percentage of (DMSO) control activity was calculated for each incubate and IC50 values estimated by non-linear regression. Sulfaphenazole, quinidine or ketoconazole were tested in each CYP2C9, CYP2D6 or CYP3A4 inhibition experiment, respectively, to ensure assay sensitivity and reproducibility. (Validated assays for human cytochrome P450 activities^11)

[5] = biological target: T5, CYP3A4 (Homo sapiens, UniProt P08684); assay: CYP inhibition assay, human liver microsomes, midazolam; format: in vitro ADME; details: read-out: CYP IC50 3A4
T5 construct: 0.2 mg/ml pooled human liver microsomes; from tissue; host or cells: pooled human liver microsomes
T5 sequence (P08684 whole entry): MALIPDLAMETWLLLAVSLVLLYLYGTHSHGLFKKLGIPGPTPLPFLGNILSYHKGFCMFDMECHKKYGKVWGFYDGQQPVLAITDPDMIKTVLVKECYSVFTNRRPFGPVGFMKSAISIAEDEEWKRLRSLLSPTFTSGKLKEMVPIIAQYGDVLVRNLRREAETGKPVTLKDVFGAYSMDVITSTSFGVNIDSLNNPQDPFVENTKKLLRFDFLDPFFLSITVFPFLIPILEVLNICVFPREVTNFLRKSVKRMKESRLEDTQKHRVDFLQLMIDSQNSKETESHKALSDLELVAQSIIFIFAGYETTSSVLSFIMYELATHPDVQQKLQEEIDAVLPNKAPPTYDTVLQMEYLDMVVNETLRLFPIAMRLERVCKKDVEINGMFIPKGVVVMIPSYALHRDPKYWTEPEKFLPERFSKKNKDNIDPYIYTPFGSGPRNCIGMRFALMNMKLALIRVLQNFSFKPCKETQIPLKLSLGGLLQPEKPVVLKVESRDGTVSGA
Method: as §3

[6] = biological target: T6, CYP2C9 (Homo sapiens, UniProt P11712); assay: CYP inhibition assay, human liver microsomes, diclofenac; format: in vitro ADME; details: read-out: CYP IC50 2C9
T6 construct: 0.2 mg/ml pooled human liver microsomes; from tissue; host or cells: pooled human liver microsomes
T6 sequence (P11712 whole entry): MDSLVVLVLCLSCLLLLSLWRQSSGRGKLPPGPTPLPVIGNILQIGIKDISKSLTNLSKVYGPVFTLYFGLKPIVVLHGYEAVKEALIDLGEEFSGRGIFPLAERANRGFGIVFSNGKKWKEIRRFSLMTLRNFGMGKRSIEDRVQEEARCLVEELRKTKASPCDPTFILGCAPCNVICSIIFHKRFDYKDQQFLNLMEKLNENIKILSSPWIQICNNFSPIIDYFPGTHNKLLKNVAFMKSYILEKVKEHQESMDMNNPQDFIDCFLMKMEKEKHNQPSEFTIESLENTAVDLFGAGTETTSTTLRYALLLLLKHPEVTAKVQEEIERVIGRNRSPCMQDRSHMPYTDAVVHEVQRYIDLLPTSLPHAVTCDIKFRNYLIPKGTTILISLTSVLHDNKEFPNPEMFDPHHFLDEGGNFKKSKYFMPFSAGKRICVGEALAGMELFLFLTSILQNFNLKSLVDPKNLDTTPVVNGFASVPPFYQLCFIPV
Method: as §3

SMILES	IC50 [1] [nM]	IC50 [2] [nM]	IC50 [3] [nM]	IC50 [4] [nM]	IC50 [5] [nM]	IC50 [6] [nM]
CC(F)(F)c1cnc(C(=O)Nc2ccc(F)c([C@@]3(C)N=C(N)O[C@@H]4CCC(F)(F)[C@@H]43)c2)cn1 [Example 4, 5-(1,1-Difluoro-ethyl)-pyrazine-2-carboxylic acid [3-((4S,4aR,7aR)-2-amino-5,5-difluoro-4-methyl-4,4a,5,6,7,7a-hexahydro-cyclopenta[e][1,3]oxazin-4-yl)-4-fluoro-phenyl]-amide]	8.9	183000	> 200000	–	–	–
C[C@]1(c2cc(NC(=O)c3cnc(C#N)cn3)ccc2F)N=C(N)O[C@@H]2CCC(F)(F)[C@@H]21 [Example 6, 5-Cyano-pyrazine-2-carboxylic acid [3-((4S,4aR,7aR)-2-amino-5,5-difluoro-4-methyl-4,4a,5,6,7,7a-hexahydro-cyclopenta[e][1,3]oxazin-4-yl)-4-fluoro-phenyl]-amide]	5.5	–	–	–	–	–
C[C@]1(c2cc(NC(=O)c3ccc(Cl)cn3)ccc2F)N=C(N)O[C@@H]2CCCC(F)(F)[C@@H]21 [Example 7, 5-Chloro-pyridine-2-carboxylic acid [3-((4S,4aR,8aR)-2-amino-5,5-difluoro-4-methyl-4a,5,6,7,8,8a-hexahydro-4H-benzo[e][1,3]oxazin-4-yl)-4-fluoro-phenyl]-amide]	4.9	–	–	–	–	–
C[C@]1(c2cc(NC(=O)c3ccc(Cl)s3)ccc2F)N=C(N)O[C@@H]2CCCC(F)(F)[C@@H]21 [Example 9, 5-Chloro-thiophene-2-carboxylic acid [3-((4S,4aR,8aR)-2-amino-5,5-difluoro-4-methyl-4a,5,6,7,8,8a-hexahydro-4H-benzo[e][1,3]oxazin-4-yl)-4-fluoro-phenyl]-amide]	350	105000	> 200000	1000 to 10000	> 10000	1000 to 10000

Continued, values first:

IC50 [1] [nM]	IC50 [2] [nM]	IC50 [3] [nM]	IC50 [4] [nM]	IC50 [5] [nM]	IC50 [6] [nM]	SMILES
1.9	–	–	–	–	–	C[C@]1(c2cc(NC(=O)c3ccc(Cl)cn3)ccc2F)N=C(N)O[C@@H]2CCC(F)(F)[C@@H]21 [Example 3]
5.1	–	–	–	–	–	C[C@]1(c2cc(NC(=O)c3cnc(CF)cn3)ccc2F)N=C(N)O[C@@H]2CCC(F)(F)[C@@H]21 [Example 5, 5-Fluoromethyl-pyrazine-2-carboxylic acid [3-((4S,4aR,7aR)-2-amino-5,5-difluoro-4-methyl-4,4a,5,6,7,7a-hexahydro-cyclopenta[e][1,3]oxazin-4-yl)-4-fluoro-phenyl]-amide]
